Experiment [1] relates to human subjects having a fasting blood sugar level of 120 mg/dL to 140 mg/dL. In words: Test of PT/PD intake for human: fasting and postprandial blood sugar level, blood indices. In kind it is in vivo. The note with it: for fasting blood sugar level: 8 mg capsule once a day for eight weeks; for fasting blood sugar level / postprandial blood sugar level: compared with the placebo-given group; for postprandial blood sugar level / 1-5AG / Glycoalbumin / HbA1c / Insulin (fasting): 8 mg capsule once a day; for postprandial blood sugar level: 30 min, 60 min and 120 min, starch food load. The procedure:
Panax notoginseng powder (10 g) was suspended in 100 mL of 30% by mass aqueous solution of ethanol, and then saponins were extracted under heating for 2 hours. The obtained extract was hydrolyzed in the presence of hydrochloric acid to prepare an aglycon-containing product. The aglycon-containing product was treated with a silica gel column (SILICA GEL 60N, product of KANTO CHEMICAL CO., LTD.) to isolate and prepare panaxatriol (PT) having a purity of 99% by mass or higher.
Next, capsules each containing 8 mg of the thus-prepared panaxatriol (PT) were prepared. These capsules were given continuously for eight weeks to human subjects of a group (hereinafter may be referred to as “PT-given group”) to measure the fasting blood sugar level and a change in postprandial blood sugar level which was measured after giving to the human subjects predetermined meals such as a meal containing an excessive amount of starch food (e.g., a rice ball formed of 200 g of cooked rice (350 kcal)). Also, the blood indices measured were the blood HbA1c level, the blood glycoalbumin level, the blood 1·5AG level and the fasting blood insulin level.
The blood sugar levels were measured with a simplified blood sugar meter FREESTYLE (product of NIPRO Co.). The fasting blood sugar level and the fasting insulin level were measured at 9 a.m. The postprandial blood sugar level was measured every 30 min for 120 min from 9 a.m. to 11:30 a.m. after the predetermined starch food had been given to the subjects. The HbA1c, glycoalbumin and 1·5AG levels were measured by a routine method of a medical facility using the blood sampled at 9 a.m.
The 24 subjects were randomly divided to two groups and assigned to a placebo-given group, serving as a control, and a PT-given group. Also, the results were statistically analyzed using the Student's t-test comparing the placebo-given group and the PT-given group. The time at which the capsules were given was set to 10 a.m. every day so that the capsules were not given at the same time as a meal.
Panax notoginseng powder (10 g) was suspended in 100 mL of 30% by mass aqueous solution of ethanol, and then saponins were extracted under heating for 2 hours. The obtained extract was hydrolyzed in the presence of hydrochloric acid to prepare an aglycon-containing product. The aglycon-containing product was treated with a silica gel column (SILICA GEL 60N, product of KANTO CHEMICAL CO., LTD.) to isolate and prepare panaxadiol (PD) having a purity of 99% by mass or higher.
Next, capsules each containing 8 mg of the thus-prepared panaxadiol (PD) were prepared. These capsules were given continuously for eight weeks to human subjects of a group (hereinafter may be referred to as “PD-given group”) to measure the fasting blood sugar level and a change in postprandial blood sugar level which was measured after giving to the human subjects predetermined meals such as a meal containing an excessive amount of starch food (e.g., a rice ball formed of 200 g of cooked rice (350 kcal)). Also, the blood indices measured were the blood HbA1c level, the blood glycoalbumin level, the blood 1·5AG level and the fasting blood insulin level.
The 24 subjects were randomly divided to two groups and assigned to a placebo-given group, serving as a control, and a PD-given group. Also, the results were statistically analyzed using the Student's t-test comparing the placebo-given group and the PD-given group. The time at which the capsules were given was set to 10 a.m. every day so that the capsules were not given at the same time as the meal.

Experiment [2] concerns model mice of hyperglycemia (KKAy mice). The experiment in a line: Blood sugar level of model mice of hyperglycemia bred five days on PT- or PD-containing high fat diet. It counts as in vivo, mouse. The note with it: for Blood sugar level (post-breeding): after five days; for Blood sugar level (initial value): before breeding. From the text:
Panaxatriol (PT) (product of LKT Laboratories, Inc.) was mixed with a commercially available high fat diet (trade name: Quick Fat, product of CLEA Japan, Inc.) in amounts shown in the following Table 1. Each of the thus-prepared feeds was given ad libitum to model mice of hyperglycemia (KKAy mice (product of CLEA Japan, Inc.), eight weeks old, 5 mice/group) to breed them for five days (hereinafter these groups may be referred to as “PT-containing group”). Mice of a control group were given a panaxatriol (PT)-free feed (hereinafter this group may be referred to as “PT-free group”). The blood sugar level was measured at 10 a.m. before breeding of the panaxatriol (PT)-containing high fat diet (initial value) and after breeding thereof (post-breeding). […] GB SENSOR (product of Sanko Junyaku Co., Ltd.) was used for the measurement of the blood sugar level. The values shown in the following Table 1 are calculated on the basis of the average value of two values obtained by measuring each individual twice for the postprandial blood sugar level. […] Panaxadiol (PD) (product of LKT Laboratories, Inc.) was mixed with a commercially available high fat diet (trade name: Quick Fat, product of CLEA Japan, Inc.) in amounts shown in the following Table 2. Each of the thus-prepared feeds was given ad libitum to model mice of hyperglycemia (KKAy mice (product of CLEA Japan, Inc.), eight weeks old, 5 mice/group) to breed them for five days (hereinafter these groups may be referred to as “PD-containing group”). Mice of a control group were given a panaxadiol (PD)-free feed (hereinafter this group may be referred to as “PD-free group”). The blood sugar level was measured at 10 a.m. before breeding of the panaxadiol (PD)-containing high fat diet (initial value) and after breeding thereof (post-breeding). […] GB SENSOR (product of Sanko Junyaku Co., Ltd.) was used for the measurement of the blood sugar level. The values shown in the following Table 2 are calculated on the basis of the average value of two values obtained by measuring each individual twice for the postprandial blood sugar level.

[3] abbreviates: 0.0001% by mass in high fat diet ad libitum.
Where [4] appears, read: 0.001% by mass in high fat diet ad libitum.
[5] abbreviates: 0.01% by mass in high fat diet ad libitum.
Where [6] appears, read: group 0.0001% by mass in high fat diet.
Where [7] appears, read: group 0.001% by mass in high fat diet.
Where [8] appears, read: group 0.01% by mass in high fat diet.

In the case of `CC1(C)CCC[C@](C)([C@H]2CC[C@]3(C)[C@@H]2[C@H](O)C[C@@H]2[C@@]4(C)CC[C@H](O)C(C)(C)[C@@H]4CC[C@]23C)O1` [PD, panaxadiol], in experiment [1], the “fasting blood sugar level” value is reported as “decreased significantly”. Moreover, in experiment [1], the “postprandial blood sugar level” value is reported as “decrease significantly”. For the same molecule, the 1-5AG in experiment [1] (Week 0) is 24.4 ± 7.8 µg/mL; in experiment [1] (Week 2), 24.1 ± 7.2 µg/mL; in experiment [1] (Week 4) it was 25.0 ± 7.3 µg/mL; in experiment [1] (Week 8), 25.7 ± 6.4 µg/mL. For the same molecule, the Glycoalbumin in experiment [1] (Week 0) is on record as 14.8 ± 1.4 % by mass; in experiment [1] (Week 2) it was 14.5 ± 1.2 % by mass; in experiment [1] (Week 4) it was 14.3 ± 1.3 % by mass; in experiment [1] (Week 8) it was 14.2 ± 1.1 % by mass. Also, the HbA1c was 5.1 ± 0.1 % by mass in experiment [1] (Week 0), 5.1 ± 0.2 % by mass in experiment [1] (Week 2), 5.1 ± 0.1 % by mass in experiment [1] (Week 4) and 4.8 ± 0.1 % by mass in experiment [1] (Week 8). The “Insulin (fasting)” value came out at 5.6 ± 1.4 μU/mL in experiment [1] (Week 0), 5.9 ± 2.2 μU/mL in experiment [1] (Week 2), 5.9 ± 3.8 μU/mL in experiment [1] (Week 4) and 6.1 ± 2.6 μU/mL in experiment [1] (Week 8). For the same molecule, the results for the “Blood sugar level (post-breeding)” value in experiment [2] (setting [3]), in experiment [2] (setting [4]) and in experiment [2] (setting [5]) were 404 ± 17 mg/dL, 323 ± 56 mg/dL and 274 ± 34 mg/dL, respectively. In addition, the “Blood sugar level (initial value)” value was determined as 454 ± 38 mg/dL in experiment [2] (setting [6]), 451 ± 34 mg/dL in experiment [2] (setting [7]) and 454 ± 32 mg/dL in experiment [2] (setting [8]).

In the case of `CC1(C)CCC[C@](C)([C@H]2CC[C@]3(C)[C@@H]2[C@H](O)C[C@@H]2[C@@]4(C)CC[C@H](O)C(C)(C)[C@@H]4[C@@H](O)C[C@]23C)O1` [PT, panaxatriol], in experiment [1], the “fasting blood sugar level” value is recorded as “decreased significantly”. For the same molecule, the “postprandial blood sugar level” value in experiment [1] is reported as “decrease significantly”. Also, the 1-5AG in experiment [1] (Week 0) worked out at 24.3 ± 7.7 µg/mL; in experiment [1] (Week 2) it was 24.2 ± 7.1 µg/mL; in experiment [1] (Week 4) it was 25.0 ± 7.5 µg/mL; in experiment [1] (Week 8), 25.6 ± 6.3 µg/mL. Further, the Glycoalbumin was determined as 14.7 ± 1.3 % by mass in experiment [1] (Week 0), 14.5 ± 1.3 % by mass in experiment [1] (Week 2), 14.3 ± 1.3 % by mass in experiment [1] (Week 4) and 14.2 ± 1.3 % by mass in experiment [1] (Week 8). Moreover, the HbA1c is 5.1 ± 0.1 % by mass in experiment [1] (Week 0), 5.1 ± 0.2 % by mass in experiment [1] (Week 2), 5.1 ± 0.1 % by mass in experiment [1] (Week 4) and 4.8 ± 0.2 % by mass in experiment [1] (Week 8). In addition, the “Insulin (fasting)” value in experiment [1] (Week 0) stood at 5.5 ± 1.5 μU/mL; in experiment [1] (Week 2), 6.1 ± 2.1 μU/mL; in experiment [1] (Week 4), 5.8 ± 4.2 μU/mL; in experiment [1] (Week 8), 6.2 ± 2.4 μU/mL. The entries for the “Blood sugar level (post-breeding)” value in experiment [2] (setting [3]), in experiment [2] (setting [4]) and in experiment [2] (setting [5]) were 401 ± 15 mg/dL, 318 ± 58 mg/dL and 265 ± 39 mg/dL, respectively. In addition, the figures for the “Blood sugar level (initial value)” value in experiment [2] (setting [6]), in experiment [2] (setting [7]) and in experiment [2] (setting [8]) were 455 ± 39 mg/dL, 451 ± 34 mg/dL and 451 ± 38 mg/dL, respectively.
